Results as given in patent publication EP0576766A1, “Propanolamine derivatives, their preparation and use” (NOVO NORDISK A/S, priority 1992, dated 1994).
Structures can show the parent of a compound that is named as a salt.

System: voltage operated calcium channels (VOC)
Assay: Inhibition of depolarization-stimulated 45Ca uptake into brain synaptosomes
Type: biochemical
Conditions: inhibition of stimulated uptake of ⁴⁵Ca in depolarized (145 mM KCl) rat cerebral cortex synaptosomes (P₂ fraction), corrected for basal uptake; 15 s incubation; estimated from dose response curves
Description: The pharmacological properties of the compounds of the invention can be illustrated by determining their capability to inhibit calcium uptake into brain synaptosomes.
Depolarization of neuronal membranes leads to an opening of socalled "voltage operated calcium channels" (VOC) in the membranes which allows a massive influx of calcium from the extracellular space. A crude synaptosomal preparation (socalled P₂ fraction) contains small vesicles surrounded by neuronal membrane and it is possible in such a preparation to study a depolarization-induced opening of VOC.
A male Wistar rat is decapitated and the cerebral cortex removed and homogenized in 10 ml. of ice-cold 0.32 M sucrose using a glass homogenizer with a teflon pestle. All subsequent steps for isolation of synaptosomes are done at 0-4°C. The homogenate is centrifuged at 1000 x g for 10 min and the resulting supernatant is re-centrifuged at 18000 x g for 20 min. This pellet (P₂) is resuspended in 0.32 M sucrose (5 ml per g of original tissue) with a teflon pestle.
The tubes are pre-incubated for 30 min on ice and then for 6 min at 37°C in a water bath.
The incubation is continued for 15 s.
The amount of radioactivity on the filter disc is determined by liquid scintillation spectrometry.
Test substances are dissolved in 10 ml of 48% ethanol at a concentration of 0.44 mg/ml. Dilution are made in 48% ethanol to give final concentrations of 0.1, 0.3, 1, 3 and 10 µg/ml. Experiments are performed in triplicate. Controls for depolarized and nondepolarized samples are included in the assay and test substances are only tested in depolarized samples.
The test value will be given as IC₅₀ (the concentration (µg/ml) of test substance which inhibit 50% of stimulated uptake of ⁴⁵Ca (uptake in depolarized samples corrected for basal uptake in nondepolarized samples )). The IC₅₀ value is estimated from dose response curves.

Point of comparison: `CN(C)CCC(Oc1ccc2c(c1)CCCC2)c1ccc([N+](=O)[O-])cc1.Cl` (stereo not drawn) [Compound 17, N,N-dimethyl-3-(4-nitrophenyl)-3-(5,6,7,8-tetrahydro-2-naphthoxy)propanamine, hydrochloride], IC₅₀ 4.9 µg/mL. Against it:
- Cl.c1ccc(C(CCN2CCOCC2)Oc2ccc3c(c2)CCC3)cc1 (stereo not drawn) [Compound 2, 4-(3-(5-Indanyloxy)-3-phenylpropyl)morpholine, hydrochloride] — 3.3-fold higher, 16 µg/mL
- FC(F)(F)c1ccc(OC(CCN2CCOCC2)c2ccccc2)cc1.O=C(O)C(=O)O (stereo not drawn) [Compound 3, 4-(3-Phenyl-3-(4-trifluoromethylphenoxy)propyl)morpholine, oxalate] — 3.5-fold higher, 17 µg/mL
- CN1CCN(CCC(Oc2ccc(C(F)(F)F)cc2)c2ccccc2)CC1 (stereo not drawn) [Compound 5, 1-(3-Phenyl-3-(4-trifluoromethylphenoxy)propyl)-4-methyl piperazine, oxalate] — 1.5-fold higher, 7.5 µg/mL
- CN(C)CCC(Oc1cccc(C(F)(F)F)c1)c1ccc([N+](=O)[O-])cc1.Cl (stereo not drawn) [Compound 15, N,N-dimethyl-3-(4-nitrophenyl)-3-(3-trifluoromethylphenoxy)propanamine, hydrochloride] — within 1.5-fold, 6.1 µg/mL
- FC(F)(F)c1ccc(OC2c3ccccc3CC2CN2CCCCC2)cc1 (stereo not drawn) [Compound 20, trans-1-(1-(4-Trifluoromethylphenoxy)indan-2-yl)methyl piperidine, hydrochloride] — 1.6-fold higher, 8.0 µg/mL
- CC(=O)Nc1ccc(C(CCN2CCCCC2)Oc2ccc(C(F)(F)F)cc2)cc1.O=C(O)C(=O)O (stereo not drawn) [Compound 23, 1-(3-(4-Acetamidophenyl)-3-(4-trifluoromethylphenoxy)propyl)piperidine, oxalate] — within 1.5-fold, 4.0 µg/mL
- CC(=O)Nc1cccc(C(CCN2CCCCC2)Oc2ccc(C(F)(F)F)cc2)c1.O=C(O)C(=O)O (stereo not drawn) [Compound 24, 1-(3-(3-Acetamidophenyl)-3-(4-trifluoromethylphenoxy)propyl)piperidine, oxalate] — within 1.5-fold, 5.3 µg/mL
- N#Cc1ccc(C(CCN2CCCCC2)Oc2ccc(C(F)(F)F)cc2)cc1.O=C(O)C(=O)O (stereo not drawn) [Compound 25, 1-(3-(4-Cyanophenyl)-3-(4-trifluoromethylphenoxy)propyl)piperidine, oxalate] — 2.2-fold lower, 2.2 µg/mL
